Test results from paper PMC9320521, “Detection of Unprecedented CYP74 Enzyme in Mammal: Hydroperoxide Lyase CYP74C44 of the Bat Sturnira hondurensis” (International Journal of Molecular Sciences, 2022).

Test system: CYP74C44 (ShHPL)
Test: UV absorbance decrease at […] nm
Assay type: biochemical, Sturnira hondurensis
Conditions: Na phosphate buffer pH 7.0, 25 °C, 5 to 150 μM substrate

| Structure (SMILES) | Km [µM] |
| --- | --- |
| CCCCC/C=C\C=C\[C@H](CCCCCCCC(=O)O)OO [9-HPOD, (9S,10E,12Z)-9-Hydroperoxy-10,12-octadecadienoic] | 46.6 ± 7.2 |
| CC/C=C\C/C=C\C=C\[C@H](CCCCCCCC(=O)O)OO [9-HPOT, (9S,10E,12Z,15Z)-9-hydroperoxy-10,12,15-octadecatrienoic] | 20.9 ± 5.6 |
| CCCCC[C@@H](/C=C/C=C\CCCCCCCC(=O)O)OO [13-HPOD, (9Z,11E,13S)-13-hydroperoxy-9,11-octadecadienoic] | 57.9 ± 13.3 |

More lines, now with the values ahead:

| Km [µM] | Structure (SMILES) |
| --- | --- |
| 28.4 ± 6.7 | CC/C=C\C[C@@H](/C=C/C=C\CCCCCCCC(=O)O)OO [13-HPOT, (9Z,11E,13S,15Z)-13-hydroperoxy-9,11,15-octadecatrienoic] |
| 8.17 ± 1.6 | CC/C=C\C[C@@H](/C=C/C=C\C/C=C\C/C=C\CCCC(=O)O)OO [15-HPEPE] |
